Tests used:
Type in all cases: in vivo
Iba1 positive microglia = test: Iba1 immunoreactivity (microgliosis), study of Example 2; conditions: rTg4510 mice, once daily by gavage, 20 mg/kg; FIG. 6B
Method: (§1) Double transgenic rTg4510 mice are an aggressive Tauopathy model expressing the full-length human Tau carrying the P301L mutation (Tau4R0N-P301L) under the control of the tetracycline-inducible CaMKII promoter (Ramsden et al., 2005). Wild-type animals and single transgenic mice expressing only the tetracycline-controlled transactivator (tTA) were used as genotype controls. Mice were treated and tested. The study comprised 4 treatment groups (n=15 female mice/group) with the following group distribution (see Table 6). Compound of the invention or vehicle control were administered once daily by gavage for 12 weeks starting at the age of 5.5 weeks. The Morris Water Maze (MWM) behavioral test was performed after 12.5 weeks of treatment over 5 consecutive days. During MWM testing daily dosing was continued. Behavioral testing (MWM) and biochemical quantification of sarkosyl-insoluble Tau were performed on all mice (n=15 mice/group). Measurement of cortical atrophy and histology for Iba1 were performed on 10 mice/group.
One section per animal from layer 6 was also used to quantify the Iba1 immunoreactivity. […] Sections were imaged using a digital slide scanner (Pannoramic 250 BF Flash+FL, 3D Histech Ltd.) and quantified using the image visualization software CaseViewer and the image analysis software module HistoQuant (3D Histech Ltd.).

sarkosyl-insoluble Tau = target: T1, sarkosyl-insoluble Tau (Homo sapiens, UniProt P10636, P618L); test: Sarkosyl-insoluble Tau quantification in cortex, study of Example 2; conditions: rTg4510 mice cortex, once daily by gavage, 7 and 20 mg/kg; statistical significance at 20 mg/kg; FIG. 5
T1 construct: expressing the full-length human Tau carrying the P301L mutation (Tau4R0N-P301L); from tissue; host or cells: brain (cortex) of double transgenic rTg4510 mice
T1 sequence (P10636 1-383 isoform P10636-6 P243L): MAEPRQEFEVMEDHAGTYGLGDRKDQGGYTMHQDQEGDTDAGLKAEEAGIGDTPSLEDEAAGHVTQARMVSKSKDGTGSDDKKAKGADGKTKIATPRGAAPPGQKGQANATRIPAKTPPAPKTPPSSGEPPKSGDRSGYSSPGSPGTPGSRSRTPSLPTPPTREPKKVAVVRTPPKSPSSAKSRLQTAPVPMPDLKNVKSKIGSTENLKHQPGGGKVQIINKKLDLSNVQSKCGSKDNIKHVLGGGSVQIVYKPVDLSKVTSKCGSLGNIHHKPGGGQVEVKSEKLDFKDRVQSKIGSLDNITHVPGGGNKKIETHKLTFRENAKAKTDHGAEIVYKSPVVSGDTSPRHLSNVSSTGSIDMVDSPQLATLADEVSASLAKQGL
Method: as §1
After behavioral testing, mice were deeply anesthetized by standard injectable anesthesia and transcardially perfused with cold PBS. Brains were then removed and hemi-sagitally hemisected. […] The membranes were finally scanned using LiCor scanner (Odyssey Infrared Imager) and quantified using the LiCor software Image Studio Lite Version 5.2. […]

rTg4510 mice = test: Morris Water Maze behavioral test, study of Example 2; conditions: once daily by gavage, 7 and 20 mg/kg, statistical significance at 20 mg/kg, FIG. 4
Method: as §1, with “Measurement of cortical atrophy and histology for Iba1 were performed on 10 mice/group.” left out
The MWM was performed in a circular tank, measuring 48″ in diameter. […] Trials were video recorded and analyzed by a computer program (WaterMaze; Actimetrics, Wilmette, Ill.). […] Percent crossing in each quadrant (target, left and right adjacent, and opposite) was calculated for probe trials. Data were analyzed by 2-way ANOVA followed by post-hoc comparisons and shown statistics refers to differences compared to vehicle treated rTg4510 mice.

sarkosyl insoluble Tau (sarkosyl-insoluble Tau): dose-dependent decrease
Compound: CN(C)[C@@H]1CCc2c(c3ccc(Nc4ccc5sc(N6CCOCC6)nc5c4)nc3n2C)C1 [Example 2]
Iba1 immunoreactive area (Iba1 positive microglia): significant decrease
percentage of platform crossings in the target compared to the opposite quadrant (MWM probe trial) (rTg4510 mice): dose-dependent increase
